Results from patent US20260159519A1, “IMIDAZOPYRIDAZINE SUBSTITUTED BENZENE RING DERIVATIVE, PREPARATION METHOD, PHARMACEUTICAL COMPOSITION AND USE” (SHANGHAI SIMR BIOTECHNOLOGY CO., LTD., priority 2022, published 2026).

Target: T1, human α2-GABAA receptor (α2-GABAAR-HEK293 cells) (Homo sapiens, UniProt P18507+P47869)
T1 construct: expressed in transfected cells
Experiment: Whole-cell patch-clamp electrophysiology, positive allosteric modulatory activity on α2-GABAA receptor
Format: cell-based
Settings: read-out: α2-GABAA positive allosteric modulatory activity

T1 sequence (P47869 29-451): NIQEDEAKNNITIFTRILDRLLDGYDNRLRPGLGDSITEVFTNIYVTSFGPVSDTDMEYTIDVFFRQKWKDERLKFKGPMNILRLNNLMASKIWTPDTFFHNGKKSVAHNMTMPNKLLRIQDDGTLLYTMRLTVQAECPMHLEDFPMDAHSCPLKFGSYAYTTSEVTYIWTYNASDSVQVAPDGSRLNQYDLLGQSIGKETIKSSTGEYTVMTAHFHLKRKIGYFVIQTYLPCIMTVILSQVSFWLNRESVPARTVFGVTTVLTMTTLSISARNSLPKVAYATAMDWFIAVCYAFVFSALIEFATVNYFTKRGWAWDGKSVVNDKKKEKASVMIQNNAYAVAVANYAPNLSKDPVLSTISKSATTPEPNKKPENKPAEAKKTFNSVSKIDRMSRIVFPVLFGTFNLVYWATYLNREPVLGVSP
T1 sequence (P18507 40-467 isoform P18507-1 limits assumed): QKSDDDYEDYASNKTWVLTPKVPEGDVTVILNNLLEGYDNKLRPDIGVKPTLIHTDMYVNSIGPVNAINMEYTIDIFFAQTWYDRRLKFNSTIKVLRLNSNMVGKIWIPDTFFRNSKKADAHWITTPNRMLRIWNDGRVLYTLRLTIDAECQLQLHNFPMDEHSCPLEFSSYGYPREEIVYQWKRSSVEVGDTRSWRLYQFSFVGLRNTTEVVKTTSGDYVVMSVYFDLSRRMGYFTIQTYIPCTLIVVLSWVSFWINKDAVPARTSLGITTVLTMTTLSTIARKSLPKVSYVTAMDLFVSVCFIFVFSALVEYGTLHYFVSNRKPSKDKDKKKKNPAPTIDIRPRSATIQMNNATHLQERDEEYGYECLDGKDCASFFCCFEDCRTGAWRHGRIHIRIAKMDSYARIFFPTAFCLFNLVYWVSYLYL
T1 sequence (P28472 26-473 partner): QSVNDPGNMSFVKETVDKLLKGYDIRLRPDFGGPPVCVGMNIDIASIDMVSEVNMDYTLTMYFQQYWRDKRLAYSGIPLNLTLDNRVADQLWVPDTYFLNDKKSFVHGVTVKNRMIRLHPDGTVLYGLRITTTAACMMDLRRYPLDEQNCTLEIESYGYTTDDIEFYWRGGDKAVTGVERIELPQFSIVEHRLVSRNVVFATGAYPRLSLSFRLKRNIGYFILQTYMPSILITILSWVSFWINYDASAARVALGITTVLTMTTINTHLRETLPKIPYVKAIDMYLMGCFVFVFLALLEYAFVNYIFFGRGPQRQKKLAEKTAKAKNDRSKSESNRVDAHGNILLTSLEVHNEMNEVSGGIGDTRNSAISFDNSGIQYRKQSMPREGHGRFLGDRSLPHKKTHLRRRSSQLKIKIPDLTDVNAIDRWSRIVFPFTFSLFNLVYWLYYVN

| SMILES | activation at 0.1 µM [%] |
| --- | --- |
| CCn1cnc2c(-c3ccc(F)c(-c4cc5oc(=O)n(C)c5cc4OC)c3)cnnc21 [Example 87, 6-(5-(7-Ethyl-7H-imidazo[4,5-c]pyridazin-4-yl)-2-fluorophenyl)-5-methoxy-3-methylbenzo[d]oxazol-2(3H)-one] | 114 |
| COc1cc2c(cc1-c1cc(-c3cnnc4c3ncn4C(C)C)ccc1F)OCC(=O)N2C [Example 36, 7-(2-Fluoro-5-(7-isopropyl-7H-imidazo[4,5-c]pyridazin-4-yl)phenyl)-6-methoxy-4-methyl-2H-benzo[b][1,4]oxazin-3(4H)-one] | 137 |
| CCN1C(=O)COc2cc(-c3cc(-c4cnnc5c4ncn5CC)ccc3F)c(OC)cc21 [Example 31, 4-Ethyl-7-(5-(7-ethyl-7H-imidazo[4,5-c]pyridazin-4-yl)-2-fluorophenyl)-6-methoxy-2H-benzo[b][1,4]oxazin-3(4H)-one] | 96 |
| CCn1cnc2c(-c3ccc(F)c(-c4cc5c(cc4OC)N(C)C(=O)C5)c3)cnnc21 [Example 161, 5-(5-(7-Ethyl-7H-imidazo[4,5-c]pyridazin-4-yl)-2-fluorophenyl)-6-methoxy-1-methyldihydro-2-one] | 118 |
| CCn1cnc2c(-c3ccc(F)c(-c4cc5c(cc4OC)N(C)C(=O)CO5)c3)cnnc21 [Example 42, 7-(5-(7-Ethyl-7H-imidazo[4,5-c]pyridazin-4-yl)-2-fluorophenyl)-6-methoxy-4-methyl-2H-benzo[b][1,4]oxazin-3(4H)-one] | 145 |
